Reference: US20110144014A1, “CYTOKINE RECEPTOR MODULATORS AND USES THEREOF” (CENTRE HOSPITALIER UNIVERSITAIRE SAINTE-JUSTINE, priority 2005, published 2011)
Where a SMILES comes first, the peptide text is derived from it. [ ]: non-standard residue; d: D form.

Biological target: T1, IL-1R/IL-1RacP (Rattus norvegicus, UniProt Q02955+Q63621)
T1 construct: 300 g Sprague-Dawley rats were anesthetized with isoflurane; from tissue; host or cells: whole animal (Sprague-Dawley rat)
T1 sequence (Q02955 20-576): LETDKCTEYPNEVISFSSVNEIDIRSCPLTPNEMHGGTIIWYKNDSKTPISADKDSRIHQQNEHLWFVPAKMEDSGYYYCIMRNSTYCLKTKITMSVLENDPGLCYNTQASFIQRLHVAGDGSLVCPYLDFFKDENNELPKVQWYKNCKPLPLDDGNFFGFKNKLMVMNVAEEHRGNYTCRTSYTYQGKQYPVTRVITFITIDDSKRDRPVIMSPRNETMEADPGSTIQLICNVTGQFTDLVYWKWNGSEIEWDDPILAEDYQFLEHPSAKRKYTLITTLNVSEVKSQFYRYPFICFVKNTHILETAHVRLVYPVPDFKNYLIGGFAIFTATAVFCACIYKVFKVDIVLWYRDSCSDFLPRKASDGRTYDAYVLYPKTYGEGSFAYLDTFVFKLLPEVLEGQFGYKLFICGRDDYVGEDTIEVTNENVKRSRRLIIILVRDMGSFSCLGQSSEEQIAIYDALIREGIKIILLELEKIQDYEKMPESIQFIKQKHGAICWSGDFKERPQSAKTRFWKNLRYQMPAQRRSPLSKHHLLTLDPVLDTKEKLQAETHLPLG
T1 sequence (Q63621 21-570): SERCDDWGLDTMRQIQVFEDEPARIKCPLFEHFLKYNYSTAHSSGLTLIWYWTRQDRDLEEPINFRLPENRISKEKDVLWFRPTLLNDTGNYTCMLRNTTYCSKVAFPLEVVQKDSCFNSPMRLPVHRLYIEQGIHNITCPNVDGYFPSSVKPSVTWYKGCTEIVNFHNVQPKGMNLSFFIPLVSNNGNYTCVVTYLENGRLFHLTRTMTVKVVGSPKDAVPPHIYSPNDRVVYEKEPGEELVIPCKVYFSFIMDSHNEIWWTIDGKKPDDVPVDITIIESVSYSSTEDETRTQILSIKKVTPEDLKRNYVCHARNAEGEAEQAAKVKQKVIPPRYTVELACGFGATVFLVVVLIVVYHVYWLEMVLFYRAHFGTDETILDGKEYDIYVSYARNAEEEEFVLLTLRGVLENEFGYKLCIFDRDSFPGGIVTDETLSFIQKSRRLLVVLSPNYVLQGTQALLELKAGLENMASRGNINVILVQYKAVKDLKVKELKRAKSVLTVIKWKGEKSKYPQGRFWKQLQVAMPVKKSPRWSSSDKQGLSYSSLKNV
Test: IL-1β induced hypotension in rats
Type: in vivo
Description: The goal of the next experiment was to verify whether the identified peptides can reverse the physiological actions of the natural cytokine in vivo either by injecting them through the jugular or directly in the stomach (to verify the stability of the peptide through the digestive tractus). 300 g Sprague-Dawley rats were anesthetized with isoflurane (2.5-4%). IL-1β was injected through the jugular. Blood was taken from the carotid for further analyses before and after (10 minutes) every injection. Peptides were then injected either directly in the stomach with a catheter or in the jugular at the concentration desired. Arterial blood pressure and other physiological characteristics were monitored at all times.
The API-101 derivatives, API-101.10 (and others) were also tested to assess whether they could reverse the physiological actions of the natural ligand in vivo by injecting the derivative through the jugular or directly into the stomach (to verify the stability of the peptide through the digestive tract). […] Arterial blood pressure and heart rate were continuously monitored (Gould) while temperature and blood gases (Radiometer) were measured for routine analysis as previously described (Li et al., Am. J. Physiol. 273:R1283-R1290, 1997; Hardy et al., Pediatr. Res. 46:375-382, 1999; Najarian et al., Circ. Res. 87:1149-1156, 2000). […]

Compound: CC(C)C[C@@H](NC(=O)[C@@H](CCC(=O)O)NC(=O)[C@H](NC(=O)[C@H](NC(=O)[C@@H](Cc1ccc(O)cc1)NC(=O)[C@H](N)CCCNC(=N)N)[C@H](C)O)C(C)C)C(=O)N[C@H](C)C(N)=O [API-101.10, RYTVELA] (H-[dR][dY][dT][dV][dE][dL][dA]-NH2; N-terminus and C-terminus assumed)
- reduction of IL-1β induced hypotension (directly into the stomach, 10^−5M): 60%
- prevention of IL-1β induced hypotension (jugular vein injection, 10^−8M, IL-1β 5 μg/kg): 95%
